Test results as given in patent publication US11639345B2, “Methionine metabolic pathway inhibitors” (MIGAL—GALILEE RESEARCH INSTITUTE LTD., priority 2018, dated 2023).

Columns and labels:
[1] = system: E. coli lacking the endogenic MetB CGS gene, transformed to express the CGS from Arabidopsis; experiment: Growth of engineered E. coli expressing Arabidopsis CGS in M9 minimal media, with and without methionine; assay type: cell-based; details: for E. coli Assay LE395 (0-5): score 0-5, growth of E. coli with Arabidopsis CGS gene in M9 minimal media; for E. coli specificity (MOA): score, growth with vs without external methionine (40 mg/L)
Method: In addition to the direct binding evaluation, specific assay to test the compounds activity and specificity were also developed. In this assay, E. coli cells, lacking the endogenic MetB CGS gene and transformed to express the CGS from Arabidopsis, were used. These cells were grown on M9 minimal media with and without external methionine supplemented to the cells, in the presence of the compounds of the embodiments. These selected compounds of the embodiments, capable of inhibiting the cell growth on M9, but incapable of affecting the cell growth when supplemented with methionine, were validated as methionine-pathway specific inhibitors.
In this assay, Methionine auxotroph E. coli mutant was transformed with PQE-30 vector containing the Arabidopsis CGS gene as previously described in Yael Hacham et al., Plant Physiol., February 2002, 128(2): 454-462. In order to test the effect of the small molecule inhibitors on the CGS and methionine pathway, growth curves of the E. coli in M9 minimal media with […] were measured with and without the addition of external methionine (40 mg/L) in the presence of variable compound concentrations. E. coli growth curves were measured by following the optical density at 600 nm of bacteria in 96 well-plate placed within Tecan M200 plate reader in orbital shaking mode at 37° C. The slope of each curve was estimated using the ‘linest’ function in Excel.

Arabidopsis thaliana = Arabidopsis thaliana root growth inhibition; assay type: in vivo; details: 168 h, root length ratio vs DMSO control, 50 μM compound, lower values indicate shorter root, larger effect, read-out: Arabidopsis (relative to DMSO)
Method: Finally, FIGS. 7a-7o are the photos of the Arabidopsis thaliana plants and the inhibition of their roots growth by the compounds of the present invention. These experiments were conducted as follows. Seeds were washed with 70% ethanol for one minute and then with sterile water. Sterilisation was performed with 50% bleaching solution (3%) and 0.2% Triton x-100 for ten minutes followed by a five-time wash with sterile water. The seeds were placed in six well-plates with half Murashige and Skoog medium (MS; Duchefa, Haarlem, Netherlands), containing 1% sucrose (w/v), pH 5.8. The plates with Arabidopsis thaliana seeds were placed at 4° C. for two days and then transferred for seven days to growth chamber (22±2° C.) at day/light cycles of 16/8 h. The plates were placed vertically. In each plate, a control including 0.1% DMSO in the medium was added. The compounds of the present invention were tested for their herbicidal efficiency by diluting 1000 times a 50 mM stock in DMSO leading to a final concentration of 50 μM with 0.1% DMSO.
In Tables 1, 2 and 4 above, Arabidopsis root length was measured after addition of 50-μM compound compared with the negative control (DMSO) treatment. Length values indicate the ratio between non-treated plates ([…]) and the length after the addition of 50 uM of each compound. Lower values indicate shorter root length, and consequently, larger effect.

Roquette = Roquette assay spray; assay type: in vivo
Tobacco CGS = target: T1, Tobacco CGS (Nicotiana tabacum, UniProt Q9ZPL5); experiment: Micro Scale Thermophoresis (MST) direct binding to CGS; parameters: 6xHIS (N, cleaved yes); GB1 solubility tag (N, cleaved yes); made in house; host or cells: E. coli BL21; details: score 0-5; binding to labelled Tobacco CGS
T1 sequence (Q9ZPL5 79-540): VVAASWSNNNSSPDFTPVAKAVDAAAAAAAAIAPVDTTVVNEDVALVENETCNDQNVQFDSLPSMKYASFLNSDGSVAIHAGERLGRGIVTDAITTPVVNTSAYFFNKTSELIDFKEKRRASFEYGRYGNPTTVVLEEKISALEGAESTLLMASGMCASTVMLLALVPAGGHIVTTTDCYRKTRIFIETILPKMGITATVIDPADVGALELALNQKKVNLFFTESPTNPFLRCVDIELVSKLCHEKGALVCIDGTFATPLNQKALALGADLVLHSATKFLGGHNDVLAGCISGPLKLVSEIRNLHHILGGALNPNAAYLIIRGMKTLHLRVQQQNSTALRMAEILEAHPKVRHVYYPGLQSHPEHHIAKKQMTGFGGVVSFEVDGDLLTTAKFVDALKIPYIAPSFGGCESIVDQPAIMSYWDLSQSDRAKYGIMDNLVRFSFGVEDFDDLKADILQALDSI
Method: The direct binding of the compounds of the embodiments to the CGS was tested by Micro Scale Thermophoresis (MST). In the MST assay, the CGS protein was labelled with a fluorophore, the samples were heated, and changes in fluorescence were measured as a function of the ligand concentration. In the MST assay, similar to the expression and purification described above, the recombinant Tobacco CGS protein was expressed in E. coli BL21 cells and purified to homogeneity. For that particular purpose, the pET-11 vector containing the DNA sequence of Tobacco CGS with an N-terminus […] tag followed by a TEV-cleavable GB1 solubility tag was cloned and transformed into the bacteria cells. Cells were cultured to OD=0.8, and protein expression was induced by the addition of 1 mM IPTG. The cells were cultured for additional 16 hours temperature 25° C. Following cellular lysis, the soluble fraction was passed through the nickel column and the bound HIS-tagged protein was eluted by 300 mM imidazole. Then, the tags […] and GB1 were cleaved in dialysis o/n and the mixtures passed again through the nickel column to separate the CGS from the TEV and HIS-GB1 constructs. As a final step the CGS was run on S75 size exclusion chromatography. Thus, the MST assay was performed to measure the biding of the compounds to the CGS protein. For this purpose, the CGS was labelled with commercially available amine reactive fluorophore (Cat # MO-[…], NanoTemper) according to the manufacture instructions. The MST binding curves were then measured using the Monolith NT.115 apparatus by incubating the labelled protein with the indicated compounds in a dose-response manner.

Structure (SMILES)	E. coli Assay LE395 (0-5) [1]	E. coli specificity (MOA) [1]	activity at 50 µM (Arabidopsis thaliana) [%]	TEV (relative to DMSO) (TEV (relative to DMSO))	Roquette assay spray (single average) (Roquette)	Roquette assay spray (twice average) (Roquette)	MST Tobacco (0-5) (Tobacco CGS)
O=C(Nc1cccc(-c2cn(Cc3ccccc3)nn2)c1)c1cc(C(F)(F)F)ccn1 [IML-223]	5	5					
COc1cccc(Nc2nc(-c3cccc(N4C(=O)c5ccccc5C4=O)c3)cs2)c1 [IML-218]	3	5					
O=C(O)C1CN(C(=O)c2ccn(-c3ccccc3)n2)c2ccccc21 (stereo not shown) [IML-121]	2	4	9	0.28	3.0	4.0	
O=C(O)C1CN(C(=O)c2cc(-c3ccccc3)[nH]n2)c2ccccc21 (stereo not shown) [IML-125]			45				
COc1cccc(C(=O)Nc2cccc(-n3cc(C)nc3O)c2)c1 [IML-67]	3	4					
CC(=O)Nc1cccc(NC(=O)CNC(=O)c2ccc3nn[nH]c3c2)c1 [IML-110]	2	4					5
COc1cccc(C(=O)Nc2cccc(-c3nc(C)cc(=O)[nH]3)c2)c1 [IML-11]	3	4					3
Cc1cc(=O)[nH]c(-c2cccc(NC(=O)c3ccc(O)cc3F)c2)n1 [IML-14]	3	4					3
COc1ccc(Cc2nc(-c3cccc(NC(=O)c4ccccc4F)c3)no2)cc1 [IML-217]	3	5					2
CCc1nc(-c2cncc(NC(=O)c3cccc(Cl)c3)c2)no1 [IML-234]				0.75	1.5	3.0	
Cc1c(Cl)cccc1Nc1nc(-c2cccc(NC(=O)c3ccccc3)c2)cs1 [IML-211]	4						
CCc1ccccc1NC(=O)CN(C)C(=O)c1ccc2nc[nH]c2c1 [IML-113]							5
CCc1ccccc1NC(=O)CNC(=O)c1ccc2c(c1)nnn2CC [IML-112]							4
O=C(c1cc(-c2ccccc2)on1)N1CCc2cc([N+](=O)[O-])ccc21 [IML-161]				0.14			
Cc1cc(=O)[nH]c(-c2ccc(NC(=O)c3c(O)cccc3F)cc2)n1 [IML-15]	3	4					1
CCc1ccc(C(=O)Nc2cccc(-c3nc(C)cc(=O)[nH]3)c2)cc1 [IML-24]			35			2.0	
CCc1ccccc1NC(=O)CNC(=O)c1ccc2nn[nH]c2c1 [IML-102]							5
COc1cccc(C(=O)Nc2cccc(-c3cc(C(F)(F)F)[nH]n3)c2)c1 [IML-70]	3	5					
COc1cccc(-c2cc(C(=O)N3CC(C(=O)O)c4ccccc43)no2)c1 (stereo not shown) [IML-166]			0	0.06	2.0	4.0	
O=C(O)C1CN(C(=O)c2cc(-c3cccc(Cl)c3)on2)c2ccccc21 (stereo not shown) [IML-181]			0	0.22	0.5		
O=C(O)C1CN(C(=O)c2cc(-c3ccccc3Cl)on2)c2ccccc21 (stereo not shown) [IML-167]			0	0.31	1.3	3.5	
COc1cccc(-c2cc(C(=O)N3C[C@H](C(=O)O)c4ccccc43)no2)c1 [IML-238]			3	0.29		2.0	
COc1ccnc(C(=O)Nc2cccc(-c3nc(C)cc(=O)[nH]3)c2)c1 [IML-62]	3	5					4
O=C(O)CC1CN(C(=O)c2cc(-c3ccccc3)on2)c2ccccc21 (stereo not shown) [IML-164]			4	0.11	3.0	3.0	
O=C(c1ccc2[nH]ncc2c1)N1CCCC(Nc2ccccc2)C1 (stereo not shown) [IML-203]			50				
O=C(Nc1cccc(-c2cn(Cc3ccccc3)nn2)c1)c1cccc(Cl)c1 [IML-232]			68		1.0	4.0	
Cc1cc(=O)[nH]c(-c2cccc(NC(=O)c3ccccc3OC(F)F)c2)n1 [IML-22]	2	4					3
O=C(CNC(=O)c1ccc2[nH]ncc2c1)Nc1ccccc1 [IML-134]	3	4	67				3
Cc1ccc(C(=O)Nc2cccc(-c3nc(C)cc(O)n3)c2)nc1 [IML-66]	3	4					3
O=C(c1ccc2[nH]ncc2c1)N1CCC(Nc2ccccc2)C1 (stereo not shown) [IML-204]			35				
